Structures are written as SMILES. Read-outs that look alike come from different tables or passages of the source.

This note sets out measurements from patent US20230167068A1, “BENZOPYRAZOLE COMPOUND” (MEDSHINE DISCOVERY INC., priority 2019, published 2023).

The test system of series [1] is human peripheral blood mononuclear cells TNF-α. Kind of series: Repression of TNF-α in human peripheral blood mononuclear cells (LPS, ELISA). Type of series: cell-based. The settings on record: PBMC, 3-fold diluted; for IC50: read-out: hPBMC IC50; for Emax: maximum effect value. The protocol:
Experimental purpose: To express the anti-inflammatory activity of the test compound at the cellular level according to the level of TNF-α in human peripheral blood mononuclear cells (hPBMC).
• [0488] 1) The frozen cells were quickly thawed by continuous stirring in a 37° C. water bath. • [0489] 2) 25 mL of fresh pre-heated thawed culture medium was added to a 50 mL centrifuge tube. Then the cells were added gently, drop by drop. • [0490] 3) Cells were centrifuged at 2000 rpm for 10 min (ascending speed: 9, descending speed: 1). • [0491] 4) The supernatant was discarded and the cell particles were resuspended in 25 mL of freshly pre-heated RPMI 1640 culture medium.
• [0493] 5) After thawing and resuscitating the suspended cells, the number of cells was counted and the total number of cells required for the experiment was calculated. • [0494] 6) The cell suspension was diluted with an appropriate volume of cell culture medium. • [0495] 7) The cell suspension was poured into a sterile disposable container. • [0496] 8) 100,000 cells/(100 µL) of cell suspension was transferred to each well of a 96-well plate. • [0497] 9) The cell plates were placed in humidified air, 5% CO2 incubator, 37° C. for 2 hours.
[…] In the second step, the serum-free culture medium was diluted 125 times, and the concentration of DMSO was 0.8%. Then 16.8 µL of the compound diluted in culture medium was transferred to a 100 µL cell plate, and the concentration of DMSO was 0.114%.
After adding the compound, the cell plates were incubated in a 37° C. 5% CO2 incubator for 1 hour.
In the first step, LPS was diluted with ultrapure water to a storage concentration of 1 mg/mL. In the second step, the storage concentration of LPS was diluted to 1 µg/mL in serum-free culture medium. In the third step, serum-free culture medium was 1666.666-fold diluted. Then 16.8 µL of LPS that has been diluted with culture medium was transferred to a 116.8 µL cell plate. At this time, the final concentration of DMSO was 0.1%. After adding LPS, the cell plate was put into a 37° C., 5% CO2 incubator and incubated for 18 hours.
• [0505] 1. The TNF-α antibody was diluted to 1× in the coating solution, and then 100 µL per well was added to a 96-well high-binding performance plate, and the plate was sealed with a membrane and placed at 4° C. for 18 hours. • [0506] 2. 2000 mL of wash buffer was prepared to 1x for later use.
• [0508] 3. After the plate was coated overnight, the coating solution was poured out and washed 3 times with 300 µL of washing buffer per well. • [0509] 4. After the plate was washed, 200 µL of sealing buffer was added to each well, and the plate was sealed with membrane. Incubated for one hour in a 25° C. incubator. • [0510] 5. The cell plates incubated for 18 hours were placed in a centrifuge for centrifugation, temperature: 25° C., speed: 2000 rpm, time: 10 min, ascending speed: 9, descending speed: 1. After centrifugation, 100 µL of cell supernatant from each well was transferred to a 3599 cell plate, and then placed in a 4° C. refrigerator for later use. • [0511] 6. The cell supernatant was diluted 40 times with sealing buffer and placed in a 4° C. refrigerator for later use, and the standard was also placed in a 4° C. refrigerator for later use. • [0512] 7. After the sealing was completed, the sealing solution was poured out and washed three times with 300 µL of washing buffer per well. • [0513] 8. The diluted cell supernatant samples and standards were added to the ELISA plate, and the plate was sealed with membrane. Then incubated for 2 hours in a 25° C. incubator. • [0514] 9. The liquid in the plate was poured out and washed 5 times with 300 µL of washing buffer per well. • [0515] 10. Antibodies were prepared and 100 µL was added to each well and the plate was sealed with sealing membrane. Then incubated for one hour in a 25° C. incubator. • [0516] 11. The liquid in the plate was poured out and washed 7 times with 300 µL of washing buffer per well. • [0517] 12. […]
For orientation: An ELISA detects its analyte on a solid surface through an enzyme-linked reagent.

The target in another series is T1, CYP3A4 (Homo sapiens, UniProt P08684).
T1 construct: incubation system containing human liver microsomes, probe substrates, and co-factors; tissue Corning Inc. or other suppliers; host or cells: mixed (pooled) human liver microsomes
T1 sequence (P08684 whole entry): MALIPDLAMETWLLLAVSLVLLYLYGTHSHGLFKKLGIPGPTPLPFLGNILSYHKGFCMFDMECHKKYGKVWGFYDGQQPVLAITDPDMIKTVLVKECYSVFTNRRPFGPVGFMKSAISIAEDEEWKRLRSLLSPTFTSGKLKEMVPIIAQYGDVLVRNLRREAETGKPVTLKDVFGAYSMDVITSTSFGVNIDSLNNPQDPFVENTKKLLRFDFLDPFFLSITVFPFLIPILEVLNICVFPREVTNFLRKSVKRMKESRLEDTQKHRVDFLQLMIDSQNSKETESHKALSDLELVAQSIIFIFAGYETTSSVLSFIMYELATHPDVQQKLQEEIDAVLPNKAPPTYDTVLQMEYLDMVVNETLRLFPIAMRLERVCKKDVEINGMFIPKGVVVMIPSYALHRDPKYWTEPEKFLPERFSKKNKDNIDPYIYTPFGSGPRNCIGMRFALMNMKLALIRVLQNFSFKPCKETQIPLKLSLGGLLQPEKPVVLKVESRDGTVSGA
Kind of series: Human liver microsomal CYP repression experiment. Type of series: in vitro ADME. The protocol: The purpose of the research project was to evaluate the repression of the test sample on human liver microsomal cytochrome P450 isoenzyme (CYP3A4) using a 5-in-1 probe substrate of CYP isoenzyme.
Mixed human liver microsomes (HLM) were purchased from Corning Inc. (Steuben, New York, USA) or other suppliers and stored at temperatures below -70° C. before use.
The diluted series concentration of the test sample was added to the incubation system containing human liver microsomes, probe substrates, and co-factors of the circulating system, and the control without the test sample but with solvent was used as the enzyme activity control (100%). The concentration of metabolites produced by the probe substrate in the sample was determined by liquid chromatography-tandem mass spectrometry (LC-MS/MS). Non-linear regression analysis of the mean percent activity of the test sample versus concentration was performed using SigmaPlot (V. 11). The IC50 values were calculated by a three- or four-parameter inverse logarithmic equation.
In general terms: Microsomes from liver hold many membrane-bound enzymes, among them those of drug oxidation.

A short description of series [2]: In vivo pharmacokinetic properties study in male SD rats. To be noted: rat, plasma, iv 2 mg/kg; for half-life: read-out: T½ (converted); for Vd: read-out: Vdss. As to the method: Experimental purpose: The purpose of this study was to determine the pharmacokinetic parameters of compounds in male SD rats.
Experimental methods: In this project, two male SD rats were intravenously administered with a dose of 2 mg/kg and a concentration of 0.4 mg/mL. Plasma samples were collected at 0 h (before administration) and 0.0833, 0.25, 0.5, 1, 2, 4, 6, 8, 24 h after administration. Then the collected samples were analyzed by LC-MS/MS and the data were collected. The collected analytical data were used to calculate the relevant pharmacokinetic parameters using Phoenix WinNonlin 6.3 software.

Setting [3] is: absolute IC50, test Top concentration 10000 nM, 8 concentration (unmarked).
[4] abbreviates: test Top concentration 10000 nM, 8 concentration (unmarked).
Setting [5] is: absolute IC50, test Top concentration 100 nM, 8 concentration (***).
Setting [6] is: test Top concentration 100 nM, 8 concentration (***).
The mark [7] stands for this setting: absolute IC50, test Top concentration 1000 nM, 8 concentration (*).
[8] abbreviates: test Top concentration 1000 nM, 8 concentration (*).

In general, IC50 refers to the point on the concentration scale where inhibition reaches its midpoint. In general, Emax refers to the greatest response seen or fitted, relative to the assay's reference. `C[C@H](NC(=O)C(C)(F)F)[C@H](Oc1ccc2c(cnn2-c2ccc3c(c2)CCCO3)c1)c1cc(F)cc(F)c1` [WX002]: the IC50 in series [1] (setting [3]) was determined as 0.0151 µM. The molecule further yielded an Emax in series [1] (setting [4]) of 84.6%.
For the molecule `C[C@H](NC(=O)C(C)(F)F)[C@H](Oc1ccc2c(cnn2-c2ccc3nccn3c2)c1)c1cc(F)cc(F)c1` [WX003], in series [1] (setting [5]), the half-inhibitory concentration (IC50) came to 0.00097 µM. Besides, the Emax in series [1] (setting [6]) was determined as 84.3%.
`CC(C)[C@H](NC(=O)C(C)(F)F)[C@H](Oc1ccc2c(cnn2-c2ccc3nccn3c2)c1)c1ccccc1` [WX004]: in series [1] (setting [7]), the half-inhibitory concentration (IC50) was found to be 0.0159 µM. The same molecule came in with an Emax in series [1] (setting [8]) of 78.5%.
On to `CC(C)[C@H](NC(=O)C(C)(F)F)[C@H](Oc1ccc2c(cnn2-c2ccc3nncn3c2)c1)c1cc(F)cc(F)c1` [WX017], for which, in series [1] (setting [3]), the half-inhibitory concentration (IC50) came out at 0.00763 µM. Moreover, in series [1] (setting [4]), the Emax is 83.1%.
In the case of `CC(C)[C@H](NC(=O)C(C)(F)F)[C@H](Oc1ccc2c(cnn2-c2ccc3nncn3c2)c1)c1ccccc1` [WX018], the 50% inhibitory concentration (IC50) in series [1] (setting [7]) worked out at 0.0186 µM. The same molecule displayed an Emax in series [1] (setting [8]) of 69.3%.
As a reminder, the clearance is the rate of elimination divided by the concentration. A lower clearance goes with inefficient removal. Regarding `C[C@H](NC(=O)C(C)(F)F)[C@H](Oc1ccc2c(cnn2-c2ccc3nncn3c2)c1)c1cc(F)cc(F)c1` [WX019], the IC50 in series [1] (setting [5]) amounted to 0.00098 µM. In series [1] (setting [6]), this molecule came in with an Emax of 90%. Also, the “repression on CYP3A4 (in words)” value on CYP3A4 (conclusion on Table 3) was “significantly improve the repression of CYP3A4”. In addition, at CYP3A4 (mixed human liver microsomes, 5-in-1 probe substrate), the 50% inhibitory concentration (IC50) worked out at 9.12 µM. In series [2], the clearance was found to be 9.74 mL/min/kg, the half-life is 3 h and the Vd turned out to be 1.28 L/kg.
Consider `C[C@H](NC(=O)C(C)(F)F)[C@H](Oc1ccc2c(cnn2-c2ccc3ncnn3c2)c1)c1cc(F)cc(F)c1` [WX034], for which, in series [1] (setting [7]), the IC50 is 0.0126 µM. In series [1] (setting [8]), this molecule gave a maximal effect (Emax) of 79.3%.
In the case of `C[C@H](NC(=O)C(C)(F)F)[C@H](Oc1ccc2c(cnn2-c2ccc3nnnn3c2)c1)c1cc(F)cc(F)c1` [WX035], the IC50 in series [1] (setting [7]) stood at 0.0116 µM. Also, the Emax in series [1] (setting [8]) worked out at 100%.
With `C[C@H](NC(=O)C(C)(F)F)[C@H](Oc1ccc2c(cnn2-c2cnn(C)c2)c1)c1ccccc1` [WX043], the IC50 in series [1] (setting [7]) was determined as 0.0049 µM. The molecule further gave a maximum response (Emax) in series [1] (setting [8]) of 88.8%.
For the molecule `C[C@H](NC(=O)C(C)(F)F)[C@H](Oc1ccc2c(cnn2-c2cn(C)nn2)c1)c1cc(F)cc(F)c1` [WX051], in series [1] (absolute IC50, test Top concentration 500 nM, 8 concentration (**)), the IC50 worked out at 0.0104 µM. This molecule also showed a maximum response (Emax) in series [1] (test Top concentration 500 nM, 8 concentration (**)) of 74.9%. In series [2], the clearance is 9.29 mL/min/kg, the half-life is 3.54 h and the Vd amounted to 2.61 L/kg.
